The text below walks through data of ChEMBL document CHEMBL1155836, “Discovery of imidazole carboxamides as potent and selective CCK1R agonists” (Bioorg Med Chem Lett, 2008).

Data set [1] deals with Cholecystokinin receptor type A (Mus musculus, UniProt O08786). The data set is described as follows: Agonist activity against mouse CCK1 receptor. The data set is classed as functional.
Data set [2] deals with Mus musculus. Kind of data set: Reduction in overnight food intake in lean mouse at 0.3 mg/kg, po. It is filed as functional. Also on record: scale not given: the % may be the effect or the level left.
Data set [3] relates to Mus musculus. Kind of data set: Reduction in overnight food intake in lean mouse at 3 mg/kg, po. It is filed as functional. Also on record: scale not given: the % may be the effect or the level left.
Data set [4] in a line: Clearance in mouse at 1.0 mg/kg, iv and 10 mg/kg, po. The data set is classed as ADME, organism-based. The conditions noted are these: in vivo.
A short description of data set [5]: Volume of distribution in mouse at 1.0 mg/kg, iv and 10 mg/kg, po. The data set is classed as ADME, organism-based. The note with it: in vivo.
Data set [6] can be described thus: Half life in mouse at 1.0 mg/kg, iv and 10 mg/kg, po. The note with it: in vivo. It is filed as ADME, organism-based.
Data set [7] has as its system Mus musculus. The data set is described as follows: Cmax in mouse at 1.0 mg/kg, iv and 10 mg/kg, po. The data set is classed as ADME, organism-based. The conditions noted are these: in vivo.
Data set [8] is described as follows: Oral bioavailability in mouse at 10 mg/kg. It is filed as ADME, organism-based. The note with it: in vivo.
Data set [9] deals with Mus musculus. The data set is described as follows: Gallbladder emptying activity in mouse assessed as reduction of gallbladder weight at 0.3 mg/kg, po. Also on record: scale not given: the % may be the effect or the level left. It is filed as functional.
Data set [10] has as its target T1, Cholecystokinin receptor type A (Homo sapiens, UniProt P32238).
T1 sequence (P32238 whole entry): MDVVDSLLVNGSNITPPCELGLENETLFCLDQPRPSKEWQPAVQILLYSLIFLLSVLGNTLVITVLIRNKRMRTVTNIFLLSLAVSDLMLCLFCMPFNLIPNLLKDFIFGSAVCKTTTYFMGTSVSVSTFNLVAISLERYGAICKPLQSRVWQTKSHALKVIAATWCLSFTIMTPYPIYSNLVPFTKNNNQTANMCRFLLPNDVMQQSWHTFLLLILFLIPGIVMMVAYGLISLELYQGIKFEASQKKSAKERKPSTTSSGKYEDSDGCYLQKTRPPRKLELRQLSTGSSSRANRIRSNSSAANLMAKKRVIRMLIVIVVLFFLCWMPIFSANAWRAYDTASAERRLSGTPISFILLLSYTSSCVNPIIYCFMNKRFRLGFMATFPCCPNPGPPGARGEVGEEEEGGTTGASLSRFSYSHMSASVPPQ
Kind of data set: Agonist activity against human CCK1 receptor. The data set is classed as functional.

Data set [11] has as its target T1, Cholecystokinin receptor type A. Kind of data set: Inhibition of human CCK1 receptor.
Data set [12] concerns the target T2, Gastrin/cholecystokinin type B receptor (Homo sapiens, UniProt P32239).
T2 sequence (P32239 whole entry): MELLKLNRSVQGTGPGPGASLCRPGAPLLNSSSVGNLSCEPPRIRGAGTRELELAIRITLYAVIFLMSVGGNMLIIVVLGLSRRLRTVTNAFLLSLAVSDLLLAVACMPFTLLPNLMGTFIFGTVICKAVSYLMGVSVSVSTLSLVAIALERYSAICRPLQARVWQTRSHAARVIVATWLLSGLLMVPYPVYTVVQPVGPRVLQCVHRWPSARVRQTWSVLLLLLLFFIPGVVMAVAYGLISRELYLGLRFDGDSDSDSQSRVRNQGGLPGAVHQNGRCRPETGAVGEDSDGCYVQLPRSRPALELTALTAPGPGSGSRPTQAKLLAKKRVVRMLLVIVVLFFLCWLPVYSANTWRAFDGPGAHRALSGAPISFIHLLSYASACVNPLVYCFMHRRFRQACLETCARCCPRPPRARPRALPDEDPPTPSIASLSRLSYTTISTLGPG
Kind of data set: Inhibition of human CCK2 receptor.

The subject of data set [13] is Mus musculus. Kind of data set: Reduction in overnight food intake in wild-type mouse at 10 mg/kg. The data set is classed as functional, organism-based. Also on record: dose 10 mg/kg.
Data set [14] concerns the target T3, Gastrin/cholecystokinin type B receptor (Homo sapiens) (UniProt P32239).
T3 sequence (whole entry): T2 sequence (P32239 whole entry)
The data set is described as follows: Agonist activity against human CCK2 receptor. It is filed as functional.

Data set [15] deals with T3, Gastrin/cholecystokinin type B receptor (Homo sapiens). The data set is described as follows: Agonist activity against human CCK2 receptor assessed as receptor activation at 10000 nM. It is filed as functional.
The subject of data set [16] is Mus musculus. Kind of data set: Reduction in overnight food intake in CCK1 receptor deficient mouse at 10 mg/kg. It is filed as functional, organism-based. On the set-up: dose 10 mg/kg.
Data set [17] deals with T4, Cholecystokinin receptor type A (Homo sapiens) (UniProt P32238).
T4 sequence (whole entry): T1 sequence (P32238 whole entry)
Kind of data set: Agonist activity against human CCK1 receptor assessed as receptor activation at 10000 nM. It is filed as functional.

Data set [18] deals with T3, Gastrin/cholecystokinin type B receptor (Homo sapiens). Kind of data set: Inhibition of human CCK2 receptor at 10000 nM.
Data set [19] has as its system Mus musculus. The data set is described as follows: Gallbladder emptying activity in mouse assessed as reduction of gallbladder weight at 0.1 mg/kg, po. The data set is classed as functional, organism-based. On the set-up: dose 0.1 mg/kg.

The source made the active and inactive calls.

Cholecystokinin receptor type A (Mus musculus, UniProt O08786), sequence (O08786 whole entry, looked up): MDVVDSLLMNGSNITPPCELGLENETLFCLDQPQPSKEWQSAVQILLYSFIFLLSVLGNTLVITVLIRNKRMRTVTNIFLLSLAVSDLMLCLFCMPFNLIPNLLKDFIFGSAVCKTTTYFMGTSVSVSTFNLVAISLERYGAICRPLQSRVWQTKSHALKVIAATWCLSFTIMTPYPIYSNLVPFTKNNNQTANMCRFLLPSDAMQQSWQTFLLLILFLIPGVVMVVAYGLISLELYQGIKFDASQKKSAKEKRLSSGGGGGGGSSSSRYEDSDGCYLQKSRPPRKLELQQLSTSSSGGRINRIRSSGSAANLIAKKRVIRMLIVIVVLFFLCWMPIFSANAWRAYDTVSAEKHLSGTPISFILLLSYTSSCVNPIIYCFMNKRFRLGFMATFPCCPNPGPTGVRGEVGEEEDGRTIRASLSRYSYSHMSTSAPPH

The EC50 is the concentration at which the effect is half-maximal. Usually half-life stands for the time needed for the level to fall by half in the phase considered. What is called Cmax is the highest concentration seen after dosing. For orientation: bioavailability means the share of a dose that reaches the circulation, judged against a reference dose that is usually intravenous. For `CCOc1cccc(-n2cc(C(=O)N3CCN(c4cc(C(=O)[O-])c5ccccc5c4)CC3)nc2-c2ccc(C)cc2)c1.[Na+]`, the 50% effective concentration (EC50) in [1] turned out to be 0.78 nM. In addition, the Activity in the data set on Mus musculus [2] amounted to 29%; in the data set on Mus musculus [3] it was 78%. The clearance in [4] came out at 3.1 mL/min/kg. Also, the Vd in [5] worked out at 0.56 L/kg. Also, the half-life in data set [6] was 3.4 h. Also, the Cmax in the data set with Mus musculus [7] was found to be 4.9 µM. Moreover, the bioavailability in data set [8] was 43%.

Broadly, the IC50 is the point on the concentration scale where inhibition reaches its midpoint. Turning to `CCOc1cccc(-n2cc(C(=O)N3CCN(c4cnc5ccccc5c4)CC3)nc2-c2ccc(C)cc2)c1` [listing 1 of 2 here], the Activity in the data set with Mus musculus [9] is listed as 59%. In data set [10], a half-maximal response (EC50) required 0.73 nM. The IC50 in data set [11] was 0.45 nM; in [12], > 10000 nM.

As usually defined, the inhibition is the share of the control response that was lost under treatment. For `CCOc1cccc(-n2cc(C(=O)N3CCN(c4cc(C(=O)O)c5ccccc5c4)CC3)nc2-c2ccc(C)cc2)c1`, the result in the data set on Mus musculus [13] was Active. The result (in data set [14]; in the data set with Mus musculus [16]) was inactive. Moreover, the Activity was < 36% in [15] and 105% in data set [17]. Further, the inhibition in [18] is < 24%.

As to `CCOc1cccc(-n2cc(C(=O)N3CCN(c4cnc5ccccc5c4)CC3)nc2-c2ccc(C)cc2)c1` [listing 2 of 2 here], the result (in [14]; in the data set with Mus musculus [19]) was inactive. Moreover, the Activity was < 36% in [15] and 105% in data set [17]. For the same molecule, the inhibition in data set [18] was < 24%.

With `CCOc1cccc(-n2cc(C(=O)N3CCN(c4cc(C(=O)O)c5ccccc5c4)CC3)nc2-c2ccc(C)cc2F)c1`, the result in the data set on Mus musculus [13] was Active. The result (in data set [14]; in the data set on Mus musculus [16]) was inactive. Further, the Activity in data set [15] is < 36%; in [17], 73%. Moreover, the inhibition in data set [18] was < 24%.
